# Test results taken from EP3390415B1, “(R)- AND (S)-1-(3-(3-N,N-DIMETHYLAMINOCARBONYL)PHENOXYL-4-NITROPHENYL)-1-ETHYL-N,N'-BIS (ETHYLENE)PHOSPHORAMIDATE, COMPOSITIONS AND METHODS FOR THEIR USE AND PREPARATION” (OBI PHARMA, INC., priority 2015, dated 2017).
# What was measured:
# [1] = tested on: A375 melanoma human tumor xenograft; experiment: In vivo human tumor xenograft model, antitumor activity; design: species or system nude mice; conditions: 2.5mpk,qdx5x2,ip
# Source text: Specific pathogen-free homozygous female nude mice (nu/nu, Charles River Laboratories) were used. Mice were given food and water ad libitum and housed in microisolator cages. Four to six week old animals were identified by microchips (Locus Technology, Manchester, MD, USA) at the time of the experiments. All animal studies were approved by the Institutional Animal Care and Use Committee at Threshold Pharmaceuticals, Inc.
# All cell lines were from the American Type Culture Collection (ATCC, Rockville, MD, USA).
# Cells were mixed with Matrigel (30% in H460) and 0.2 ml per mouse were subcutaneously implanted to the flank area of the animals. When tumor size reached 100-150 mm^3, mice were randomized into experimental or vehicle groups with 10 mice/group and treatment was started (Day 1). The tested compounds were formulated in 5% DMSO in D5W. All compounds were given by IP, QDx5/wk (5 days on, 2 days off) as one cycle, for a total of 2 cycles. Tumor growth and body weight were measured twice a week. Tumor volume was calculated as (length x width^2)/2. Drug efficacy was assessed as Tumor Growth Inhibition (TGI) and Tumor Growth Delay (TGD). TGI was defined as (1-ΔT/ΔC) x 100, where ΔT/ΔC presented the ratio of the change in mean (or median, if variation within the group was relatively large) tumor volume of the treated group and of the control group. TGD was calculated as the extra days for the treated tumor to reach 500mm^3 as compared to the control group. Animals were culled when individual tumor size reached over 2000mm^3 or mean tumor volume exceeded 1000mm^3 in the group. Data are expressed as the mean ± SEM. One-way analysis of variance with Dunnett post comparison test (GraphPad Prism 4) or two-tailed student's t-test were used for analysis. A P level < 0.05 was considered statistically significant.
# This study employed an A375 melanoma human tumor xenograft model and the compounds provided herein were compared to thiotepa and the approved anti melanoma drug, Abraxane. […] Mpk refers to mg/kg.
# [2] = Body weight and toxicity in the orthotopic liver cancer mouse model; type: in vivo, athymic nude mice; conditions: mouse, in vivo
# [3] = tested on: HepG2-GFP human hepatocellular carcinoma; experiment: Orthotopic mouse model of human liver cancer, tumor burden; type: in vivo, athymic nude mice; conditions: 30mg/kg, Qdx35, Gavages
# Procedure: Female athymic nude mice (6 weeks of age) were used in this study. The animals were purchased from Beijing HFK Bioscience, Co., Ltd and maintained in a High Efficiency Particulate Air Filter (HEPA) filtered environment with cages, food, and bedding sterilized by irradiation or autoclaving. A total of 32 nude mice were used for the study. HepG2-GFP human hepatocellular carcinoma cells (AntiCancer, Inc., San Diego, CA) were incubated with RPMI-1640 (Gibco-BRL, Life Technologies, Inc.), which contained 10% FBS. Cells were grown in a CO2 Water Jacketed Incubator (Forma Scientific) maintaining 37°C and a 5% CO2/95% air atmosphere. Cell viability was determined by trypan blue exclusion analysis. Five female athymic nude mice were injected subcutaneously with a single dose of 5 x 10^6 HepG2-GFP cells. Tumors were harvested when their size reached 1cm^3 and the tumor tissues were then cut into small fragments of 1mm^3. Forty female nude mice were implanted orthotopically with a single piece of tumor fragment, which was derived from a subcutaneous tumor model of HepG2-GFP human hepatocellular carcinoma. The tumor tissue was orthotopically implanted in the right lobe of the liver in each mouse by SOI (Surgical Orthotopic Implantation). Briefly, an upper abdominal incision of 1cm was made under anesthesia. Right lobe of the liver was exposed and a part of the liver surface was injured mechanically by scissors. Then a piece of tumor fragment was fixed within the liver tissue, the liver was returned to the peritoneal cavity and the abdominal wall finally closed. Mice were kept in laminar-flow cabinets under specific pathogen-free-conditions.
# Treatment was started three days after tumor implantation when the implanted tumors reached an average size of around 1 mm^2. The 32 tumor-bearing mice were randomly divided into four experimental groups of 8 mice each. Each cage was clearly marked for its group with four mice per cage. […] Table. Groups and treatment protocol
# During the period of the study, all of the experimental mice were checked daily for mortality or signs of morbidity. […] The body weights of the mice were measured twice weekly during the study period. Images of tumor growth and progression were acquired twice a week during the period of the study with the FluorVivo imaging system, Model 300/Mag (INDEC, CA, USA). […] Livers were exposed for imaging, after which the tumors were removed and weighted with an electronic balance (Sartorius BS 124 S, Germany). Tumor tissues were kept in formalin for further analysis. Comparisons of body weights and tumor burdens in different groups were analyzed using the Student's t-test with an α = 0.05 (two-sided). After intravenously injection of the test agents, the mice had no lying, no autonomous activity reduction. The experimental animals were generally in good condition. Table. Comparison of mean mice body weight at the end of the study
# The progressions of orthotopic HepG2-GFP hepatocellular carcinoma in different groups were monitored by real time imaging. Images were acquired twice a week. Typical tumor images at the end of the study in each group and tumor growth curves derived from the signals of tumor fluorescence, which were analyzed using the Power Station software (INDEC Biosystems, CA, USA), are shown in figure 6 and figure 7, respectively Table. Average tumor size in each group (mm2)
SMILES,Days to 500 mm^3 [1],Days to 1000 mm^3 [1],"TGD500, Days (vs. vehicle) [1]","TGD1000, Days (vs. vehicle) [1]",TGI [1],toxicity to the experimental mice [2],Tumor weight (g) (mean ± sd) [3],Tumor area (mm^2) (mean ± sd) ([3]; fluorescence imaging),tumor inhibition rate IR(%) ([3]; from final average tumor weights)
"S=P(N1CC1)(N1CC1)N1CC1 [Thio-TEPA, thiotepa]",18 days,27 days,3 days,2 days,16.6%,,,,
"CNC(=O)c1cc(Oc2ccc(NC(=O)Nc3ccc(Cl)c(C(F)(F)F)c3)cc2)ccn1 [Sorafenib, reference compound]",,,,,,a certain degree of toxicity,0.0637 ± 0.0389 g,8.2 ± 5.3 mm^2,58.7%
